Source: the supplement of paper PMC4862054

Assays:
Details in all cases: incubation time: 72 h
MDA-MB-436 [1] = assay: normalised viability (% of control), CellTiter-Blue; higher = more viable cells (about 100 = DMSO control)
Summary of the method: (§1)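 384-well plates were pre-loaded with compound in 5 µl medium before 20 µl of breast cancer cell suspension was seeded. Following 72 h incubation, 2.5 µl CellTiter-Blue reagent was added for 2 h at 37 °C. Fluorescence was read at 560/590 nm and plates were normalised to vehicle (100) and a positive kill control (0), checked by Z'-factor. Normalised viability is reported at a single listed concentration of the series.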

CAL-85-1 [2] = assay: as above
Summary of the method: as §1

Hs578T [3] = assay: as above
Summary of the method: as §1

DU-4475 [4] = assay: as above
Summary of the method: as §1

CAL-148 [5] = assay: as above
Summary of the method: as §1

HDQ-P1 [6] = assay: as above
Summary of the method: as §1

BT-474 = assay: drug sensitivity score (DSS), CellTiter-Glo (DSS (AUC-based score)); higher = stronger drug effect (viability inhibition or cytotoxicity); extreme values may be limits of the assay
Summary of the method: (§2)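 A drug sensitivity score was derived from the area under each fitted dose-response curve. Breast cancer cells (20 µl suspension) were seeded onto compound in 384-well plates, using 5 concentrations 10-fold apart over a compound-specific 10,000-fold range, and incubated 72 h. Readouts were CellTox Green fluorescence and then CellTiter-Glo luminescence, with every plate normalised to 0.1 % DMSO and a positive kill control.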

BT-549 = assay: as above
Summary of the method: as §2

MDA-MB-436 [7] = assay: as above
Summary of the method: as §2

MFM-223 = assay: as above
Summary of the method: as §2

HCC1599 = assay: as above
Summary of the method: as §2

MDA-MB-468 = assay: as above
Summary of the method: as §2

CAL-85-1 [8] = assay: as above
Summary of the method: as §2

Hs578T [9] = assay: as above
Summary of the method: as §2

HCC1143 = assay: as above
Summary of the method: as §2

DU-4475 [10] = assay: as above
Summary of the method: as §2

MDA-MB-453 = assay: as above
Summary of the method: as §2

CAL-120 = assay: as above
Summary of the method: as §2

CAL-148 [11] = assay: as above
Summary of the method: as §2

SK-BR-3 = assay: as above
Summary of the method: as §2

MDA-MB-231 = assay: as above
Summary of the method: as §2

MCF-10A = assay: as above
Summary of the method: as §2

HDQ-P1 [12] = assay: as above
Summary of the method: as §2

CAL-51 = assay: as above
Summary of the method: as §2

HCC1937 = assay: as above
Summary of the method: as §2

NC1(c2ccc(-c3nc4ccn5c(=O)[nH]nc5c4cc3-c3ccccc3)cc2)CCC1 [MK-2206]
normalised viability [%]
Details	CAL-85-1 [2]	CAL-148 [5]	DU-4475 [4]	HDQ-P1 [6]	Hs578T [3]	MDA-MB-436 [1]
0.3 nM	104	102	120	110	–	–
1 nM	–	–	–	–	118	104
3 nM	95	106	111	111	–	–
10 nM	100	110	107	109	–	–
100 nM	–	–	–	–	124	80.7
1000 nM	–	–	–	–	85.2	81

Details	drug sensitivity score
BT-474	0
BT-549	2.74
CAL-51	0
CAL-85-1 [8]	0
CAL-120	0
CAL-148 [11]	1.35
DU-4475 [10]	0.0487
HCC1143	0
HCC1599	0
HCC1937	0
HDQ-P1 [12]	0
Hs578T [9]	0.281
MCF-10A	0
MDA-MB-231	0
MDA-MB-436 [7]	0
MDA-MB-453	5.41
MDA-MB-468	0.936
MFM-223	1.78
SK-BR-3	3.43

NC(=O)c1cccc2cn(-c3ccc([C@@H]4CCCNC4)cc3)nc12 [MK-4827]
normalised viability [%]
Details	CAL-85-1 [2]	CAL-148 [5]	DU-4475 [4]	HDQ-P1 [6]	Hs578T [3]	MDA-MB-436 [1]
3 nM	95.8	97.7	94.8	95.3	–	–
10 nM	–	–	–	–	96.2	84.2
30 nM	92	98.2	81.1	94.1	–	–
100 nM	93.1	95.8	85.5	95.6	–	–
1000 nM	–	–	–	–	93.7	72.4
10000 nM	–	–	–	–	80.7	65.3

Details	drug sensitivity score
BT-474	0
BT-549	0
CAL-51	0
CAL-85-1 [8]	0
CAL-120	0
CAL-148 [11]	0.954
DU-4475 [10]	2.22
HCC1143	0
HCC1599	0
HCC1937	0
HDQ-P1 [12]	0
Hs578T [9]	0
MCF-10A	0
MDA-MB-231	0
MDA-MB-436 [7]	3.73
MDA-MB-453	0
MDA-MB-468	1.06
MFM-223	0
SK-BR-3	0

N[C@@H](Cc1ccc(N(CCCl)CCCl)cc1)C(=O)O [Melphalan]
normalised viability [%]
Details	CAL-85-1 [2]	CAL-148 [5]	DU-4475 [4]	HDQ-P1 [6]	Hs578T [3]	MDA-MB-436 [1]
0.297 nM	94.8	92.6	101	117	–	–
0.99 nM	–	–	–	–	98.4	88.2
2.97 nM	91.2	94.5	84.1	94	–	–
9.9 nM	96.6	91.4	92.8	91.2	–	–
99 nM	–	–	–	–	82	90
990 nM	–	–	–	–	73	75.4

Details	drug sensitivity score
BT-474	19.2
BT-549	14.4
CAL-51	21.3
CAL-85-1 [8]	17.4
CAL-120	11.5
CAL-148 [11]	19.5
DU-4475 [10]	19.1
HCC1143	13.9
HCC1599	17.2
HCC1937	20.2
HDQ-P1 [12]	19.5
Hs578T [9]	16.2
MCF-10A	17.6
MDA-MB-231	20.7
MDA-MB-436 [7]	16.6
MDA-MB-453	21.3
MDA-MB-468	21.5
MFM-223	19.3
SK-BR-3	20.5

O=C(c1cc(Cc2n[nH]c(=O)c3ccccc23)ccc1F)N1CCN(C(=O)C2CC2)CC1 [Olaparib]
normalised viability [%]
Details	CAL-85-1 [2]	CAL-148 [5]	DU-4475 [4]	HDQ-P1 [6]	Hs578T [3]	MDA-MB-436 [1]
3 nM	87.7	76.5	95.6	95.6	–	–
10 nM	–	–	–	–	110	113
30 nM	74	87.8	89.2	102	–	–
100 nM	90.5	83.3	91.6	103	–	–
1000 nM	–	–	–	–	109	105
10000 nM	–	–	–	–	75.7	95.6

Details	drug sensitivity score
BT-474	0
BT-549	1.44
CAL-51	10.1
CAL-85-1 [8]	0
CAL-120	1.26
CAL-148 [11]	2.94
DU-4475 [10]	0
HCC1143	0
HCC1599	0
HCC1937	0
HDQ-P1 [12]	0
Hs578T [9]	0
MCF-10A	0
MDA-MB-231	0
MDA-MB-436 [7]	4.69
MDA-MB-453	0
MDA-MB-468	2.57
MFM-223	0
SK-BR-3	0
